According to patent publication US7763596B2, “Selective glucocorticoid receptor agonists” (The University of Manchester, priority 2000, dated 2010):
“Also recorded” adds a separate entry of the source.

How the values were obtained:
IL-8 = test: Repression of endogenous IL-8 in A549s; format: cell-based, human; settings: A549 cells; compound G at 100 nM, p=0.0076
Text: The A549 cell line (ECACC:86012804) is derived from the human lung epithelial cells from a carcinoma. This cell line contains functional endogenous GR and is stimulated by Tumour Necrosis Factor (TNF) to produce IL-8.
In this assay TNF was used to stimulate NFkB activity in a cell line that expressed endogenous GR. The ability of NFkB to induce IL-8 gene transcription could then be repressed by GR in a ligand dependent manner and, therefore, used to measure transrepression.
COS7 cells were transfected with 3 μg NRE-Luc per 10 cm tissue culture dish. The cells were plated out in to 24 well plates after transfection and left for 18 hours to recover before the steroids of FIGS. 1 and 2A were added. After incubation for 3 hours with the steroids, TNF was added to the samples and after another 15 hours an IL-8 assay (R&D systems) was performed on the cell supernatants according to the manufacturers instructions. Briefly, triplicates of 100 μl of a 1:2 dilution of cell supernatant and 100 μl of a known dilution series of IL-8 were added to the wells of a microtitre plate coated with a monoclonal IL-8 antibody, the samples were incubated with a polyclonal biotinylated IL-8 antibody for 1 hour at room temperature and washed. Streptavidin horse radish peroxidase solution was then added to all wells and incubated for 30 mins before being washed. Tetramethyl benzidine (TMB; a chromagen) was added to all the wells and incubated in the dark for 10 mins, the reaction was stopped by the addition of H2SO4 and the absorbance of each well was read on a spectrophotometer using 450 nm as the primary wavelength. Regression analysis was performed on the standard data and the unknowns were expressed as pg/ml of IL-8 in comparison to the standards.

glucocorticoid receptor [1] = molecular target: T1, glucocorticoid receptor (Homo sapiens, UniProt P04150); test: Transrepression assay using artificially expressed glucocorticoid receptor and P65 in the COS 7 cell line (NRE luciferase); format: cell-based; design: expressed in transfected cells; host or cells: COS 7 (African green monkey kidney, deficient in endogenous GR); settings: 1, 10 and 100 nM
T1 sequence (P04150 1-777): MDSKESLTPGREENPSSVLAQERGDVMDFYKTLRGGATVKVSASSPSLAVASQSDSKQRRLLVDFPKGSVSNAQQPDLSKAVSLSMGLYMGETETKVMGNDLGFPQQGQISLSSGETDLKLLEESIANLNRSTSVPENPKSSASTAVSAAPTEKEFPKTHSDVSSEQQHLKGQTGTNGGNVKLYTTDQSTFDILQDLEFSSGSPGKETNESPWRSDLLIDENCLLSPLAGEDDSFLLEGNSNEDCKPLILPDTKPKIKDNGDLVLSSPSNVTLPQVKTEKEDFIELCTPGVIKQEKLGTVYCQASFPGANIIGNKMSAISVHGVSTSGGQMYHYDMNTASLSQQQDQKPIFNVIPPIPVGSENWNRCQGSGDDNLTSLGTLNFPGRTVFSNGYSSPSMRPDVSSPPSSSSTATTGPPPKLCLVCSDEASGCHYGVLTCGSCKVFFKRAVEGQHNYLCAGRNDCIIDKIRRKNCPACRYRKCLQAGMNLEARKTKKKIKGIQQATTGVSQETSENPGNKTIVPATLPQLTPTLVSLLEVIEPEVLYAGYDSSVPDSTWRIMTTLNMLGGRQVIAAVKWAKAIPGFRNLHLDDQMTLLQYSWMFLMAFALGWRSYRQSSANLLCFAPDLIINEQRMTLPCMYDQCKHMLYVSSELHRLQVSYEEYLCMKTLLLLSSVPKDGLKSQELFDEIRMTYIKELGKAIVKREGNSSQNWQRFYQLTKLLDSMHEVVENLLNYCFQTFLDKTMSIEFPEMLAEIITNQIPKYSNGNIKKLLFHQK
Method: (§1) All transfections were performed using lipofectamine plus (Gibco BRL), according to the manufacturers' instructions, as previously described^1. Briefly, all cells were seeded at 5×10^5 per 10 cm tissue culture plate 18 hours before transfection, the next day the relevant plasmids were mixed with serum free medium and “Plus” reagent (Gibco BRL) and incubated for 15 mins, lipofectamine reagent was added and the mix was incubated for a further 15 mins, this mix was added to the cells on serum free medium in the 10 cm tissue culture plates and left for 3 hours, the cells were then trypsinised and divided into 24 well plates, the cells were left to recover overnight and were treated with steroid for 16 hours before harvest. All experiments were performed from one transfection in triplicate and on separate occasions with similar results.
(§2) The firefly luciferase gene catalyses the production of light from the substrate luciferin. When plasmid constructs containing this gene are transfected into cell lines the activity of the gene can be assessed by the intensity of the luminesence. The luciferase assay yields luminescence through an ATP-dependent oxidation of luciferin the amount of light produced can be measured by a luminometer and is a measure of gene activity (Davis, 1996). Light intensity was measured in a Luminometer (LB 9501, Berthold). The light intensity should be proportional to luciferase concentration in the range of 10^−16M (10 μg/L) to 10^−8M (1 mg/L). To measure the luminescence of the treated cells 150 μl of 1× reporter lysis buffer (RLB: 25 mM Tris phosphate pH7.8, 10 mM MgCl2, 15% Glycerol, 1% Triton, 1 mM EDTA) was added to the 24 well plates to lyse the cells and incubated at room temperature for 30 mins whilst being shaken. Then 100 μl of the room temperature cell extract were mixed with 100 μl of room temperature Luciferase Assay Reagent (LAR: 1 mM ATP, 0.3 mM D-Luciferin, 66% RLB). This reaction was mixed in a luminometer (LB 9501, Berthold) and the light produced was measured for a period of 5 seconds.
To perform this assay the GR and p65 were artificially expressed in a cell line lacking GR and deficient in endogenous P65. The ability of P65 to activate an NFkB response element (NRE) “driving” a luciferase reporter gene could then be repressed by GR in a ligand dependent manner and, therefore, used to measure transrepression.
COS7 cells were transfected with 1 μg pcDNA3-GR and 3 μg NRE-Luc and 200 ng p65 per 10 cm tissue culture dish. The cells were plated out in to 24 well plates after transfection and left for 18 hours to recover before the steroids of FIGS. 1 and 2A were added. After another 18 hour incubation the cells were lysed and a luciferase assay was performed.

glucocorticoid receptor [2] = molecular target: T1, glucocorticoid receptor; test: Transactivation assay using artificially expressed glucocorticoid receptor in the COS 7 monkey kidney cell line (GRE luciferase); format: cell-based; design: expressed in transfected cells; host or cells: COS 7 (African green monkey kidney, deficient in endogenous GR); settings: for ability to transactivate (luminescence) compared to dexamethasone: 1, 10 and 100 nM, FIGS. 3 and 4; for transactivation potential (luminescence) compared to dexamethasone, repeat experiment: 1, 10, 10 and 500 nM, FIG. 5
Method: as §1, §2
In this assay the GR was artificially expressed in a cell line lacking endogenous GR and a glucocorticoid response element (GRE) “driving” a luciferase reporter gene was used to measure ligand dependent activation.
COS7 cells were transfected with 1 μg pcDNA3-GR and 3 μg AH3-Luc per 10 cm tissue culture dish. The cells were plated out in to 24 well plates after transfection and the steroids were added immediately. After 18 hour incubation the cells were lysed and a luciferase assay was performed.

SMILES | repression of IL-8 production after TNF activation (IL-8) | repression of P65 stimulation of an NFkB response element compared with dexamethasone (glucocorticoid receptor [1]) | ability to transactivate (luminescence) compared to dexamethasone (glucocorticoid receptor [2]) | transactivation potential (luminescence) compared to dexamethasone, repeat experiment (glucocorticoid receptor [2])
CC1CC2C3CCC4=CC(=O)C=CC4(C)C3(F)C(O)CC2(C)C12OC(C)(C)OCC2=O (stereo not shown) [Compound A] | exhibited transrepression | less potent than dexamethasone but produced the same maximal response at 100 nM | – | –
CC1CC2C3CCC4=CC(=O)C=CC4(C)C3(F)C(O)CC2(C)C1(O)C(=O)COC(=O)c1ccc(F)cc1 (stereo not shown) [Compound D] | exhibited transrepression | as potent as dexamethasone | more active in causing transactivation than dexamethasone | –
CCCNC(=O)C1(O)C(C)CC2C3CCC4=CC(=O)C=CC4(C)C3(F)C(O)CC21C (stereo not shown) [Compound G] | repressed IL-8 production better than dexamethasone | “left shifted” response and greater maximal repression | much less potent and had a lower maximal effect when compared to dexamethasone | “right shifted response” and a reduced maximum compared to dexamethasone; also recorded: lowest overall maximal response
Cc1ccc(NC(=O)C2(O)C(C)CC3C4CCC5=CC(=O)C=CC5(C)C4(F)C(O)CC32C)cc1 (stereo not shown) [Compound O] | – | failed completely to repress P65 function | failed to generate a response at any concentration | –
CCCCCCNC(=O)OCC(=O)C1(O)C(C)CC2C3CCC4=CC(=O)C=CC4(C)C3(F)C(O)CC21C (stereo not shown) [Compound T] | – | “left shifted” response and greater maximal repression | – | “right shifted response” and a reduced maximum compared to dexamethasone
CC1CC2C3CCC4=CC(=O)C=CC4(C)C3(F)C(O)CC2(C)C1(O)C(=O)NCCCO (stereo not shown) [L] | – | failed completely to repress P65 function | failed to generate a response at any concentration | –
CC1CC2C3CCC4=CC(=O)C=CC4(C)C3(F)C(O)CC2(C)C1(O)C(=O)NCCC(=O)O (stereo not shown) [Q] | – | no effect at 1 and 10 nM with only a negligible repression at 100 nM | failed to generate a response at any concentration | –
CCCOC(=O)C1(O)C(C)CC2C3CCC4=CC(=O)C=CC4(C)C3(F)C(O)CC21C (stereo not shown) [R] | – | failed completely to repress P65 function | failed to generate a response at any concentration | –
